Patent US20040171603A1, “Novel therapeutic targets for the treatment of mycobacterial infections and compounds useful therefor” (priority 2001, published 2004)
pIC50: −log10 of the molar value. Where two headings read alike, the source gives them in different places.

What was measured:
[1] = tested on: M. smegmatis expressing wildtype PknG in murine macrophage cell line RAW; format: cell-based, Mycobacterium smegmatis; conditions: FIG. 2
[2] = biological target: T1, mycobacterial protein kinase G (PknG) (Mycobacterium tuberculosis, UniProt P9WI73); experiment: biochemical; conditions: for IC50: ATP near Km, read-out: Inhibition of PknG (IC50, [μM])
T1 construct: GST; made in house; host or cells: E. coli BL21

[3] = read-out: IC50 value, inhibition of serine/threonine protein kinase G of M. tuberculosis
[4] = ranging from about 2 μM and more than 30 μM over the listed compounds, read-out: IC50 values, inhibition of PknG (span stated for the group)

T1 sequence (P9WI73 whole entry): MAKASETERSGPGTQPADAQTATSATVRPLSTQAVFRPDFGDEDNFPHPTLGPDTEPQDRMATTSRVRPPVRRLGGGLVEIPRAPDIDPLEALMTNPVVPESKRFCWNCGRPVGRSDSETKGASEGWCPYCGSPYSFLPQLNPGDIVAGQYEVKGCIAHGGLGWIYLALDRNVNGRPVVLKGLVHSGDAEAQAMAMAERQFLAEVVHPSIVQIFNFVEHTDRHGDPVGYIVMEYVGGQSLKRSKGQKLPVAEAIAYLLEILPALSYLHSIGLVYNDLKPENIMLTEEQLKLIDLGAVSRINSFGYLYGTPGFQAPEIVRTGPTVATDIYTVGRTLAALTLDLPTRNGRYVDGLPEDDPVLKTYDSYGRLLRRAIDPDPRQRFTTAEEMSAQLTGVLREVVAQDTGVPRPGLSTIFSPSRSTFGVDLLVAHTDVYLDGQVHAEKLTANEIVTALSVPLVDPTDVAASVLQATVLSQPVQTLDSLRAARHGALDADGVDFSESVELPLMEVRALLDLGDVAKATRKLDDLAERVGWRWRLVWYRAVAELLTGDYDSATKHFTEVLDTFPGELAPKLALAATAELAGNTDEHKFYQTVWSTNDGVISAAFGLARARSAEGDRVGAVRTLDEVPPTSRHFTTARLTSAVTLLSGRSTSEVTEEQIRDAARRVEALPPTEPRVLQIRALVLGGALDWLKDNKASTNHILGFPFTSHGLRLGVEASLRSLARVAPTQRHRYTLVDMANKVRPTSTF

Row | SMILES | resistance to macrophage degradation of wildtype PknG-expressing M. smegmatis ([1]; 1 μM or 10 μM) | clearance of PknG-expressing M. smegmatis in macrophages ([1]; 10 μM, 24 hours postinfection, RAW cells) | pIC50 [2, 3] | IC50 [2] [µM] | pIC50 [2, 4]
1 | NC(=O)c1c(NC(=O)C2CC2)sc2c1CCCC2 [Compound 237, 2-(Cyclopropanecarbonyl-amino)-4,5,6,7-tetrahydro-benzo[b]thiophene-3-carboxylic acid amide] | overcomes the resistance to macrophage degradation | as efficient as observed with the mutant or vector control transformants | 6.70 |  | 
2 | O=C(Nc1sc2c(c1C(=O)NCCO)CCCC2)c1ccco1 [Compound 240, Furan-2-carboxylic acid [3-(2-hydroxy-ethylcarbamoyl)-4,5,6,7-tetrahydro-benzo[b]thiophen-2-yl]-amide] |  |  |  | 16 | ≤ 5.70
3 | CC(=O)Nc1sc2c(c1C(N)=O)CCCC2 [Compound 250, 2-Acetylamino-4,5,6,7-tetrahydrobenzo[b]thiophene-3-carboxylic acid amide] |  |  |  | > 30 | ≤ 5.70
4 | CC(=O)Nc1sc2c(c1C(N)=O)CCC(C)C2 (centres unmarked) [Compound 284, 2-Acetylamino-6-methyl-4,5,6,7-tetrahydrobenzo[b]thiophene-3-carboxylic acid amide] |  |  |  | ~12 | ≤ 5.70
5 | CCC(C)C(=O)Nc1sc2c(c1C(N)=O)CCCC2 (centres unmarked) [Compound 267, 2-(2-Methyl-butyrylamino)-4,5,6,7-tetrahydrobenzo[b]thiophene-3-carboxylic acid amide] |  |  |  | ~15 | ≤ 5.70
6 | NC(=O)c1c(NC(=O)C2CC2)sc2c1CCSC2 [Compound 286, 2-(Cyclopropanecarbonyl-amino)-4,7-dihydro-5H-thieno[2,3-c]-thiopyran-3-carboxylic acid amide] |  |  |  | ~2 | ≤ 5.70
7 | NC(=O)c1c(NC(=O)Cc2ccc([N+](=O)[O-])cc2)sc2c1CCCC2 [Compound 238, 2-[2-(4-Nitrophenyl)-acetylamino]-4,5,6,7-tetrahydro-benzo[b]thiophene-3-carboxylic acid amide] |  |  |  | ~5 | ≤ 5.70
8 | NC(=O)c1c(NC(=O)C2CCC2)sc2c1CCCC2 [Compound 266, 2-(Cyclobutanecarbonyl-amino)-4,5,6,7-tetrahydrobenzo[b]thiophene-3-carboxylic acid amide] |  |  |  | ~3 | ≤ 5.70
9 | CCOC(=O)c1c(NC(=O)C(C)C)sc2c1CCCC2 [Compound 256, 2-Isobutyrylamino-4,5,6,7-tetrahydrobenzo[b]thiophene-3-carboxylic acid ethyl ester] |  |  |  | > 30 | ≤ 5.70
10 | CC1CCc2c(sc(NC(=O)C3CC3)c2C(N)=O)C1 (centres unmarked) [Compound 270, 2-(Cyclopropanecarbonyl-amino)-6-methyl-4,5,6,7-tetrahydrobenzo[b]thiophene-3-carboxylic acid amide] |  |  | 6.05 |  | 
11 | O=C(O)c1c(NC(=O)C2CC2)sc2c1CCCC2 [Compound 252, 2-(Cyclopropanecarbonyl-amino)-4,5,6,7-tetrahydro-benzo[b]thiophene-3-carboxylic acid] |  |  |  | ~19 | ≤ 5.70
12 | CC(C)C(=O)Nc1sc2c(c1C(N)=O)CCCC2 [Compound 255, 2-Isobutyrylamino-4,5,6,7-tetrahydrobenzo[b]thiophene-3-carboxylic acid amide] |  |  |  | ~3 | ≤ 5.70
13 | CC1CCc2c(sc(NC(=O)Cn3cnc([N+](=O)[O-])n3)c2C(N)=O)C1 (centres unmarked) [Compound 239, 6-Methyl-2-[2-(3-nitro-[1,2,4]triazol-1-yl)-acetylamino]-4,5,6,7-tetrahydro-benzo[b]thiophene-3-carboxylic acid amide] |  |  |  | > 30 | ≤ 5.70
